Results reported in patent US20230391768A2, “IMIDAZOPYRIDINE DERIVATIVES AND AZA-IMIDAZOPYRIDINE DERIVATIVES AS JANUS KINASE 2 INHIBITORS AND USES THEREOF” (Dana-Farber Cancer Institute, Inc., priority 2018, published 2023).

Columns and labels:
Assay in all cases: KINOMEscan
Format in all cases: binding
ACVR1 = ACVR1 (Homo sapiens (Human), UniProt Q04771); details: read-out: percent of control
Procedure: (§1) In vitro profiling of Compound I-2 (1 μM) was performed using the DiscoveRx KINOMEscan® platform.

CDC2L5 = CDC2L5 (Homo sapiens (Human), UniProt Q14004); details: read-out: percent of control
Procedure: as §1

CDKL3 = CDKL3 (Homo sapiens (Human), UniProt Q8IVW4); details: read-out: percent of control
Procedure: as §1

DYRKIA = DYRKIA (Homo sapiens (Human), UniProt Q13627); details: read-out: percent of control
Procedure: as §1

EPHA5 = EPHA5 (Homo sapiens (Human), UniProt P54756); details: read-out: percent of control
Procedure: as §1

EPHA8 = EPHA8 (Homo sapiens (Human), UniProt P29322); details: read-out: percent of control
Procedure: as §1

ERK1 = ERK1 (Homo sapiens (Human), UniProt P27361); details: read-out: percent of control
ERK1, sequence (P27361 whole entry): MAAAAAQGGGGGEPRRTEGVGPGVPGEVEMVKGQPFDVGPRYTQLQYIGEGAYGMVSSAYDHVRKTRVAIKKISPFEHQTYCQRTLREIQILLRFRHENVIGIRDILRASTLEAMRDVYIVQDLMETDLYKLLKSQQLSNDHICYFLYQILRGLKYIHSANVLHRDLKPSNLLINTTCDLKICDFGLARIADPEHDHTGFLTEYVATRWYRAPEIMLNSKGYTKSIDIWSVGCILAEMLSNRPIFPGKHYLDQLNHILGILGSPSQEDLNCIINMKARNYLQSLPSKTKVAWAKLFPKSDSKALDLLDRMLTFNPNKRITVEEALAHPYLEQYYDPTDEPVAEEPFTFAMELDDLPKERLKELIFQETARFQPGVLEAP
Procedure: as §1

ERK5 = ERK5 (Homo sapiens (Human), UniProt Q13164); details: read-out: percent of control
Procedure: as §1

FGFR3 (G697C) = FGFR3 (G697C) (Homo sapiens (Human), UniProt P22607, G697C); details: read-out: percent of control
FGFR3 (G697C), sequence (P22607 23-806 G697C): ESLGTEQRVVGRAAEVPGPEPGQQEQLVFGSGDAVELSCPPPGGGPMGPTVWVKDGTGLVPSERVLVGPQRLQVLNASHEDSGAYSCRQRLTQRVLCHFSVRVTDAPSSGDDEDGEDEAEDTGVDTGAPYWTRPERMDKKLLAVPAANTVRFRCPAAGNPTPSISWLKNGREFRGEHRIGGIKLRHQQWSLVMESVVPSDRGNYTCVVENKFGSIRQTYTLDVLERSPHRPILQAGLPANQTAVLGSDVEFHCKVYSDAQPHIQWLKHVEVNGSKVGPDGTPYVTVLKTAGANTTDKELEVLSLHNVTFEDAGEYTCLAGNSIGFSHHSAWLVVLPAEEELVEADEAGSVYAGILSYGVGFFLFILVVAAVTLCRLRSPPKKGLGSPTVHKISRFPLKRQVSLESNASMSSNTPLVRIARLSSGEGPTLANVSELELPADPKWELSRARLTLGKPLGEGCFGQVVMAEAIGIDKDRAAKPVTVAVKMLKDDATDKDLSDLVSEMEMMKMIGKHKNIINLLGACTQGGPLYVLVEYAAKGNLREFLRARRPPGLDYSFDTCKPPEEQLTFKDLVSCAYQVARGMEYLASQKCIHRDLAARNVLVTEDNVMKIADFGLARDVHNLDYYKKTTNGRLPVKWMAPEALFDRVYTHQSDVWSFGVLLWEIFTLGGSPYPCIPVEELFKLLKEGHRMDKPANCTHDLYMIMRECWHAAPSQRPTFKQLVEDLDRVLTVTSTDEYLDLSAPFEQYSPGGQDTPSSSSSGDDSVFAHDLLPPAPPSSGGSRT
Procedure: as §1

FLT3 = FLT3 (Homo sapiens (Human), UniProt P36888); details: read-out: percent of control
Procedure: as §1

FLT3 (ITD,D835V) = details: 1 μM
Procedure: as §1

HIPK1 = HIPK1 (Homo sapiens (Human), UniProt Q86Z02); details: read-out: percent of control
Procedure: as §1

INSR = INSR (Homo sapiens (Human), UniProt P06213); details: read-out: percent of control
Procedure: as §1

KIT(D816V) = KIT(D816V) (Homo sapiens (Human), UniProt P10721, D816V); details: read-out: percent of control
KIT(D816V), sequence (P10721 26-976 D816V): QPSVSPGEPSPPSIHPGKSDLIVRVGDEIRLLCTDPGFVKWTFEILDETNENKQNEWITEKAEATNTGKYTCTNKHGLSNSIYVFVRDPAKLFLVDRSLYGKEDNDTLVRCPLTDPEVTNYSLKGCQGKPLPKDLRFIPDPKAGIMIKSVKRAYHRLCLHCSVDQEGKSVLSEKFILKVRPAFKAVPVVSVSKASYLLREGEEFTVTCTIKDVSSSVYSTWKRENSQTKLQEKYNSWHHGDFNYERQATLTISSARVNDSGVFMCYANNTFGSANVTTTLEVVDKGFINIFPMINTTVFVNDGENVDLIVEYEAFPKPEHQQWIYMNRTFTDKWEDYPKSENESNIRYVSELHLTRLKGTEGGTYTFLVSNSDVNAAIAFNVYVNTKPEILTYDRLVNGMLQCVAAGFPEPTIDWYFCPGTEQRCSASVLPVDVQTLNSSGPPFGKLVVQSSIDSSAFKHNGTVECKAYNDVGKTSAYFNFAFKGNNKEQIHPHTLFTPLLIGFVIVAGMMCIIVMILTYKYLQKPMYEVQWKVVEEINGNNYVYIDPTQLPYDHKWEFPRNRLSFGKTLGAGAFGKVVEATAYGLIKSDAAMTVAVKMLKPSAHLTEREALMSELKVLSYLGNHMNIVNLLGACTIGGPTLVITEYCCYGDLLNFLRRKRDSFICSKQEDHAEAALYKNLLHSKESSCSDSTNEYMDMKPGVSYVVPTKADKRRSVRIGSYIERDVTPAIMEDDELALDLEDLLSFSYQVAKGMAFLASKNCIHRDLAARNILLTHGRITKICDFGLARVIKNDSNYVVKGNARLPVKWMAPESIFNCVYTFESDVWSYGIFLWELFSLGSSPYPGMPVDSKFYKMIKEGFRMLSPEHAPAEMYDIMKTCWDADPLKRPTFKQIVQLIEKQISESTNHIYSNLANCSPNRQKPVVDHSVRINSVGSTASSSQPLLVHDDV
Procedure: as §1

LRRK2 = LRRK2 (Homo sapiens (Human), UniProt Q5S007); details: read-out: percent of control
Procedure: as §1

MAPKAPK5 = MAPKAPK5 (Homo sapiens (Human), UniProt Q8IW41); details: read-out: percent of control
MAPKAPK5, sequence (Q8IW41 whole entry): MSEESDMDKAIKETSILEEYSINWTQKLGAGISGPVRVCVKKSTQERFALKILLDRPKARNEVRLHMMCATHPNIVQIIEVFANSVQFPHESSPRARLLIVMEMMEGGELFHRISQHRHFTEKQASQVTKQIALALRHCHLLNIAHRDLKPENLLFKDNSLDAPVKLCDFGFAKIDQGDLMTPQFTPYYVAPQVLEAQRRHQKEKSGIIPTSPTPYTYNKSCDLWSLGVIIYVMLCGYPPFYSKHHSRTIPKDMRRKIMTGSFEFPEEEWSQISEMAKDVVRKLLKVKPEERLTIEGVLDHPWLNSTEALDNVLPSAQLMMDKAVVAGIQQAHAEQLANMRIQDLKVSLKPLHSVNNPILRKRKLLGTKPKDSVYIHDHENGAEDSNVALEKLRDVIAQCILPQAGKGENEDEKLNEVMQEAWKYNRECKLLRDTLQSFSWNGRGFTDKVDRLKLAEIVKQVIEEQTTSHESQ
Procedure: as §1

MEK4 = MEK4 (Homo sapiens (Human), UniProt P45985); details: read-out: percent of control
MEK4, sequence (P45985 whole entry): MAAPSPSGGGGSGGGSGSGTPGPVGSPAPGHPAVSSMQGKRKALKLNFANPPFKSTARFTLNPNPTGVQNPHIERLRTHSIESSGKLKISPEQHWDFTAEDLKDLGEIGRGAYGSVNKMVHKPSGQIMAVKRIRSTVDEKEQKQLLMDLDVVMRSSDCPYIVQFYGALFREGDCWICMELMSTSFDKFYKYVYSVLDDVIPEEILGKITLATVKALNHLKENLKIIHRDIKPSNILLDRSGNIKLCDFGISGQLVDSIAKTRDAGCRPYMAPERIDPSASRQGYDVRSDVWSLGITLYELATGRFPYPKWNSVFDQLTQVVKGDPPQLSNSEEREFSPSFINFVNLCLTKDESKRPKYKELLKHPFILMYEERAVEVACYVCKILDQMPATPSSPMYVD
Procedure: as §1

MST2 = MST2 (Homo sapiens (Human), UniProt Q13188); details: read-out: percent of control
Procedure: as §1

MYLK2 = MYLK2 (Homo sapiens (Human), UniProt Q9H1R3); details: read-out: percent of control
Procedure: as §1

PFCDPK1(P.falciparum) = PFCDPK1(P.falciparum) (Plasmodium falciparum (isolate 3D7), UniProt P62344); details: read-out: percent of control
Procedure: as §1

PIK3CA(E545A) = PIK3CA(E545A) (Homo sapiens (Human), UniProt P42336, E545A); details: read-out: percent of control
Procedure: as §1

PIM2 = PIM2 (Homo sapiens (Human), UniProt Q9P1W9); details: read-out: percent of control
Procedure: as §1

PIM3 = PIM3 (Homo sapiens (Human), UniProt Q86V86); details: read-out: percent of control
Procedure: as §1

PKN2 = PKN2 (Homo sapiens (Human), UniProt Q16513); details: read-out: percent of control
Procedure: as §1

PLK1 = PLK1 (Homo sapiens (Human), UniProt P53350); details: read-out: percent of control
Procedure: as §1

PRKCQ = PRKCQ (Homo sapiens (Human), UniProt Q04759); details: read-out: percent of control
Procedure: as §1

RIPK1 = RIPK1 (Homo sapiens (Human), UniProt Q13546); details: read-out: percent of control
Procedure: as §1

SGK = SGK (Homo sapiens (Human), UniProt O00141); details: read-out: percent of control
SGK, sequence (O00141 whole entry): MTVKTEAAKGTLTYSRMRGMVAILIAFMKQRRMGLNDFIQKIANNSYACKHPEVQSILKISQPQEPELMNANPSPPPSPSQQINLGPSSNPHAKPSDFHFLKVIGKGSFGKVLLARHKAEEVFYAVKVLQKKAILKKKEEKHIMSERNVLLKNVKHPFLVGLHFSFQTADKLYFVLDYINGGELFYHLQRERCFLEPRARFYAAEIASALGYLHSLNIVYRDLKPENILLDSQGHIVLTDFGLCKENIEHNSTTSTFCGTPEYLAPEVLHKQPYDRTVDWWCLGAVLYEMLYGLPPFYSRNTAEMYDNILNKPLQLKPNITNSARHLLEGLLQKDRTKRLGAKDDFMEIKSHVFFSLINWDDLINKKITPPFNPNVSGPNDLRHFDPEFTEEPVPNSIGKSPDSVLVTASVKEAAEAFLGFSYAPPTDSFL
Procedure: as §1

SGK2 = SGK2 (Homo sapiens (Human), UniProt Q9HBY8); details: read-out: percent of control
Procedure: as §1

SRMS = SRMS (Homo sapiens (Human), UniProt Q9H3Y6); details: read-out: percent of control
Procedure: as §1

SRPK1 = SRPK1 (Homo sapiens (Human), UniProt Q96SB4); details: read-out: percent of control
Procedure: as §1

STK35 = STK35 (Homo sapiens (Human), UniProt Q8TDR2); details: read-out: percent of control
STK35, sequence (Q8TDR2 whole entry): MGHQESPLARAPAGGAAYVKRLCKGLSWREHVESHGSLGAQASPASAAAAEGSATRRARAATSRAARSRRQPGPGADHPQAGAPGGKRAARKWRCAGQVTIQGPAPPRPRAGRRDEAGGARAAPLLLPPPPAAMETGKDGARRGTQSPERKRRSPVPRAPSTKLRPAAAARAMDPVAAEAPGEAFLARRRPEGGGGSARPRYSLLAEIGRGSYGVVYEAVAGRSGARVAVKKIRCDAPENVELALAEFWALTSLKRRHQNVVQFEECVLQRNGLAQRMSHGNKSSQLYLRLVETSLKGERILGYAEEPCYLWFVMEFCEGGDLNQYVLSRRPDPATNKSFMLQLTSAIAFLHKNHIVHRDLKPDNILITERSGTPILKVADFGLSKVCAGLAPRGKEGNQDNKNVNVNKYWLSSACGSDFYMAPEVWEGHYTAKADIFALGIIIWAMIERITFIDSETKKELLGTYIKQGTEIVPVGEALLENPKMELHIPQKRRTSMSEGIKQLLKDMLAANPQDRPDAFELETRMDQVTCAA
Procedure: as §1

TBK1 = TBK1 (Homo sapiens (Human), UniProt Q9UHD2); details: read-out: percent of control
Procedure: as §1

TESK1 = TESK1 (Homo sapiens (Human), UniProt Q15569); details: read-out: percent of control
Procedure: as §1

TLK1 = TLK1 (Homo sapiens (Human), UniProt Q9UKI8); details: read-out: percent of control
TLK1, sequence (Q9UKI8 whole entry): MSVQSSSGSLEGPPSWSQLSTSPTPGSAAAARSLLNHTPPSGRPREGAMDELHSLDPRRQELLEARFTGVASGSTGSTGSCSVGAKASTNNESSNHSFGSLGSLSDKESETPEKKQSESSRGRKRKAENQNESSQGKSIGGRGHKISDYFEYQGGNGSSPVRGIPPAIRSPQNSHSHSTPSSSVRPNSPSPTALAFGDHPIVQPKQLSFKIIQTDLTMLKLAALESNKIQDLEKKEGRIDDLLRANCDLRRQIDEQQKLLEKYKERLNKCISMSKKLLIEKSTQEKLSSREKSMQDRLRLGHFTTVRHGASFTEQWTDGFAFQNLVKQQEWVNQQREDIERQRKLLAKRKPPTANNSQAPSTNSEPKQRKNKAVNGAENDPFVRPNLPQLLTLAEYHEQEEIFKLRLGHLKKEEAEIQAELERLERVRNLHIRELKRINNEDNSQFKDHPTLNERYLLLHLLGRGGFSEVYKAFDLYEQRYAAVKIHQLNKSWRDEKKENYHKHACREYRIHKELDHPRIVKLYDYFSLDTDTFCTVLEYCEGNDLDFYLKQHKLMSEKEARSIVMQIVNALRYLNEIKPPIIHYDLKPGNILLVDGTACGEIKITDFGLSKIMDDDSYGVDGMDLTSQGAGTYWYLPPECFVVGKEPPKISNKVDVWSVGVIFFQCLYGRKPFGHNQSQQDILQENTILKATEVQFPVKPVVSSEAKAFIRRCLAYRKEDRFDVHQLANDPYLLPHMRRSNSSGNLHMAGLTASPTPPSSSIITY
Procedure: as §1

TRKA = TRKA (Homo sapiens (Human), UniProt P04629); details: read-out: percent of control
Procedure: as §1

TSSK3 = TSSK3 (Homo sapiens (Human), UniProt Q96PN8); details: read-out: percent of control
TSSK3, sequence (Q96PN8 whole entry): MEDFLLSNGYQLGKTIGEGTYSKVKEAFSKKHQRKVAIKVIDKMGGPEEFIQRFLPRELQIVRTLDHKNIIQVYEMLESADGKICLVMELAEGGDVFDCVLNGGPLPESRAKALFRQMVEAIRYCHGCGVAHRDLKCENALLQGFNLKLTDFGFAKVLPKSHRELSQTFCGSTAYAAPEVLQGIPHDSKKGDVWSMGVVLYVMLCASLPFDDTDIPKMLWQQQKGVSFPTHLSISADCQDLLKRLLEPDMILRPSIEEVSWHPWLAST
Procedure: as §1

YANK3 = YANK3 (Homo sapiens (Human), UniProt Q86UX6); details: read-out: percent of control
Procedure: as §1

p38-gamma = p38-gamma (Homo sapiens (Human), UniProt P53778); details: read-out: percent of control
Procedure: as §1

Compound	remaining binding at 1 µM (ACVR1) [%]	remaining binding at 1 µM (CDC2L5) [%]	remaining binding at 1 µM (CDKL3) [%]	remaining binding at 1 µM (DYRKIA) [%]	remaining binding at 1 µM (EPHA5) [%]	remaining binding at 1 µM (EPHA8) [%]	remaining binding at 1 µM (ERK1) [%]	remaining binding at 1 µM (ERK5) [%]	remaining binding at 1 µM (FGFR3 (G697C)) [%]	remaining binding at 1 µM (FLT3) [%]	percent of control (FLT3 (ITD,D835V)) [%]	remaining binding at 1 µM (HIPK1) [%]	remaining binding at 1 µM (INSR) [%]	remaining binding at 1 µM (KIT(D816V)) [%]	remaining binding at 1 µM (LRRK2) [%]	remaining binding at 1 µM (MAPKAPK5) [%]	remaining binding at 1 µM (MEK4) [%]	remaining binding at 1 µM (MST2) [%]	remaining binding at 1 µM (MYLK2) [%]	remaining binding at 1 µM (PFCDPK1(P.falciparum)) [%]	further results
CCN1CCN(Cc2cc(NC(=O)c3ccc(C)c(-c4ccc5nc(NC(=O)C6CC6)cn5n4)c3)cc(C(F)(F)F)c2)CC1 [Compound I-2, 3-(2-(cyclopropanecarboxamido)imidazo[1,2-b]pyridazin-6-yl)-N-(3-((4-ethylpiperazin-1-yl)methyl)-5-(trifluoromethyl)phenyl)-4-methylbenzamide]	100	0.3	0.4	92	2.3	0	95	95	87	1	61	62	0.85	32	100	72	98	50	92	84	remaining binding at 1 µM (PIK3CA(E545A)): 91%; remaining binding at 1 µM (PIM2): 96%; remaining binding at 1 µM (PIM3): 90%; remaining binding at 1 µM (PKN2): 77%; remaining binding at 1 µM (PLK1): 98%; remaining binding at 1 µM (PRKCQ): 27%; remaining binding at 1 µM (RIPK1): 0.45%; remaining binding at 1 µM (SGK): 83%; remaining binding at 1 µM (SGK2): 87%; remaining binding at 1 µM (SRMS): 86%; remaining binding at 1 µM (SRPK1): 85%; remaining binding at 1 µM (STK35): 69%; remaining binding at 1 µM (TBK1): 75%; remaining binding at 1 µM (TESK1): 100%; remaining binding at 1 µM (TLK1): 100%; remaining binding at 1 µM (TRKA): 0.75%; remaining binding at 1 µM (TSSK3): 100%; remaining binding at 1 µM (YANK3): 91%; remaining binding at 1 µM (p38-gamma): 0%
CCN1CCN(Cc2cc(NC(=O)c3ccc(C)c(-c4ccc5nc(NC(=O)C6CC6)cn5c4)c3)cc(C(F)(F)F)c2)CC1 [Compound I-6, 3-(2-(cyclopropanecarboxamido)imidazo[1,2-a]pyridin-6-yl)-N-(3-((4-ethylpiperazin-1-yl)methyl)-5-(trifluoromethyl)phenyl)-4-methylbenzamide]	100	0.75	0	100	2.5	0	100	92	69	2.5	76	96	3.2	22	87	100	71	97	83	88	remaining binding at 1 µM (PIK3CA(E545A)): 100%; remaining binding at 1 µM (PIM2): 97%; remaining binding at 1 µM (PIM3): 89%; remaining binding at 1 µM (PKN2): 100%; remaining binding at 1 µM (PLK1): 100%; remaining binding at 1 µM (PRKCQ): 74%; remaining binding at 1 µM (RIPK1): 0.75%; remaining binding at 1 µM (SGK): 92%; remaining binding at 1 µM (SGK2): 76%; remaining binding at 1 µM (SRMS): 79%; remaining binding at 1 µM (SRPK1): 57%; remaining binding at 1 µM (STK35): 59%; remaining binding at 1 µM (TBK1): 96%; remaining binding at 1 µM (TESK1): 97%; remaining binding at 1 µM (TLK1): 97%; remaining binding at 1 µM (TRKA): 0%; remaining binding at 1 µM (TSSK3): 91%; remaining binding at 1 µM (YANK3): 100%; remaining binding at 1 µM (p38-gamma): 9.4%
